The values below come from patent publication US20100216249A1, “DNA-Based Biosensors” (ISIS INNOVATION LIMITED, priority 2007, published 2010).

Test [1] addresses lac repressor (lacR) (Escherichia coli, UniProt P03023). In words: Sensing a lactose analog (IPTG) using DNA biosensors: IPTG-dependent loss of lacR-assembled full DNA site, detected by single-molecule fluorescence (protein-dependent DNA coincidence). The format is binding, bacteria. Particulars: FIG. 16; IPTG interaction with lacR (tetrameric bacterial repressor); fraction of bursts with intermediate stoichiometry vs IPTG concentration. From the text: For the purposes of our assay, the fluorophores can be placed far from the protein binding site (as long as the fluorophores are spaced by less than approximately 200 base pairs); as such, there is no perturbation of protein-DNA binding and no information about the exact structure of the protein-DNA complex is necessary. The concept is described in FIG. 3. In the absence of a DNA-binding protein, for example, a dimeric protein, such as a dimeric transcription factor, two DNA fragments with short and complementary single-stranded DNA tails diffuse independently in solution (top panel). In the presence of a DNA-binding protein that binds specifically to the fully assembled DNA site, the two DNA fragments diffuse as a single molecular complex (a 1:1 donor-acceptor species); such a species can be easily differentiated from the free DNA half-sites and can be counted, giving information about the concentration of the specific DNA-binding protein. […]
An example of sensing the concentration of a small molecule using protein-dependent DNA coincidence. In the absence (or low concentration) of the molecule to be sensed (yellow triangle), the transcription factor binds to DNA with high affinity and gives rise to DNA coincidence detected by single-molecule fluorescence. […]

Test [2] has as its target lacR (Escherichia coli, UniProt P03023). In words: sensing a lactose analog (IPTG) using DNA biosensors (lacR-dependent DNA coincidence). It is filed as binding, bacteria. From the text: An example of sensing the concentration of a small molecule using protein-dependent DNA coincidence. In the absence (or low concentration) of the molecule to be sensed (yellow triangle), the transcription factor binds to DNA with high affinity and gives rise to DNA coincidence detected by single-molecule fluorescence.
FIG. 16. Sensing a lactose analog (IPTG) using DNA biosensors. […] A plot of the number of molecules with intermediate stoichiometry can be used as a calibration curve to identify the concentration of the small molecule, provided that the concentration is not much higher or much lower than the Kd for the interaction of the small molecule with the DNA-binding protein.

lacR, sequence (P03023 whole entry): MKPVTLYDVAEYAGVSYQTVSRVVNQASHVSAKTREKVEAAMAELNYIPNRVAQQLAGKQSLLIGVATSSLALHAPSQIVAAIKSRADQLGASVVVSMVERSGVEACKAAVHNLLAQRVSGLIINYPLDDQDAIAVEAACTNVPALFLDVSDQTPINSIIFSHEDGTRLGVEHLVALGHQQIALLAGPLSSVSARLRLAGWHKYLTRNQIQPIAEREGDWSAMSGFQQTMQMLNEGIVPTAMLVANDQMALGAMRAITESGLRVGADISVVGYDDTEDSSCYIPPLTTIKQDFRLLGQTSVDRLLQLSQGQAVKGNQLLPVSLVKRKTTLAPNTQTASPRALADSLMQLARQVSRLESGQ
lac repressor (lacR), sequence (P03023 whole entry): as above

As for `CC(C)S[C@@H]1O[C@H](CO)[C@H](O)[C@H](O)[C@H]1O` [IPTG], the Kd (commonly the equilibrium constant for the complex coming apart) in test [1] is 1 to 2 µM. Besides, the “lacR assembly of the full DNA site” value in test [2] (high concentration of IPTG, relative fraction of bursts with intermediate stoichiometry decreases) is “does not assemble the full site”; in test [2] (low concentration of IPTG, relative fraction of bursts with intermediate stoichiometry increases) it was “does bind and assemble the full site”.
